The structures appear in SMILES notation. pKd: −log10 of the molar value.

In the assay the target is adenylyl cyclase-associated protein 1 (CAP1) (Homo sapiens, UniProt Q01518). In words: ITC with purified CAP1. Format: binding.
Sequence of adenylyl cyclase-associated protein 1 (CAP1) (Q01518 2-475): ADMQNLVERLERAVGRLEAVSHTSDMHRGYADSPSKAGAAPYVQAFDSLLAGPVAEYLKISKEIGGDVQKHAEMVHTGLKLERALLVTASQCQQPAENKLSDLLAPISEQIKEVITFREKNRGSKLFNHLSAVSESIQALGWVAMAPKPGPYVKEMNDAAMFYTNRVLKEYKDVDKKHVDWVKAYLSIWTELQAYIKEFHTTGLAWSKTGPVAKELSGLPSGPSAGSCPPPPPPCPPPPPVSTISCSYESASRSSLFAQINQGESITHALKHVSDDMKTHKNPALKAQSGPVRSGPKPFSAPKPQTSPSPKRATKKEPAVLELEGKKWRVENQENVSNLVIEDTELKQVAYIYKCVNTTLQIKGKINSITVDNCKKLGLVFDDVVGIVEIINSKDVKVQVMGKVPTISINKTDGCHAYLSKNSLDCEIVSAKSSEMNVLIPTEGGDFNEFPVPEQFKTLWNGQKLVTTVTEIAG

In turn, `CC1=C(O)C(=O)C=C2C1=CC=C1[C@@]2(C)CC[C@@]2(C)[C@@H]3C[C@](C)(C(=O)O)CC[C@]3(C)CC[C@]12C` [celastrol] gave a pKd of 6.96.

A word on the pKd: it is −log10 of the Kd, conventionally taken in molar units. The low end stands for a high Kd, the high end for a low Kd.

For the origin of these results see PMC8148064 (Acta Pharmaceutica Sinica. B, 2020).
